pIC50: −log10 of the molar value.

We go through five compounds from patent publication US8217066B2, “Compounds as lysophosphatidic acid receptor antagonists” (Amira Pharmaceuticals, Inc., priority 2009, dated 2012).

The target in one test is T1, human LPA1 (Homo sapiens, UniProt Q92633).
T1 construct: the full-length cDNA for human LPA1 was obtained by PCR of the reverse transcription reaction; expressed in transfected cells
Briefly: LPA1 calcium flux assay (HLPA1 Ca Flux). It counts as cell-based. Conditions: CHO cells stably expressing human LPA1, stimulated with 10 nM LPA. Background: Calcium flux is commonly read through the fluorescence of an indicator in the cells.

The test system of test [1] is A2058 human melanoma cells. Nature of the test: LPA1 chemotaxis assay. It counts as cell-based. Conditions: 100 nM LPA, read-out: inhibition of LPA-driven chemotaxis, IC50. Here is the method: Chemotaxis of the A2058 human melanoma cells was measured using the Neuroprobe ChemoTx® System plates (8 μm pore size, 5.7 mm diameter sites). The filter sites were coated with 0.001% fibronectin (Sigma) in 20 mM Hepes, pH 7.4 and allowed to dry. A2058 cells were serum-starved for 24 hours, then harvested with Cell Stripper and resuspended in DMEM containing 0.1% fatty-acid-free bovine serum albumin (BSA) to a concentration of 1×10^6/ml. Cells were mixed with an equal volume of test compound (2×) in DMEM containing 0.1% fatty-acid-free BSA and incubated at 37° C. for 15 minutes. LPA (100 nM in DMEM containing 0.1% fatty-acid-free BSA) or vehicle was added to each well of the lower chamber and 50 μl of the cell suspension/test compound mix was applied to the upper portion of the ChemoTx plate. Plates were incubated at 37° C. for three hours and then the cells removed from the upper portion by rinsing with PBS and scraping. The filter was dried then stained with HEMA 3 Staining System (Fisher Scientific). The absorbance of the filter was read at 590 nm and IC50s were determined using Symyx Assay Explorer.

Test [2] deals with pancreatic cancer cell lines. The settings on record: cited from earlier work.
Test [3] relates to highly peritoneal metastatic pancreatic cancer cell line. Conditions: cited from earlier work.
A further test deals with LPA receptor. The settings on record: compared with LPA1 (−/−) mice, in which renal fibrosis was significantly attenuated; cited from earlier work.

T1 sequence (Q92633 whole entry): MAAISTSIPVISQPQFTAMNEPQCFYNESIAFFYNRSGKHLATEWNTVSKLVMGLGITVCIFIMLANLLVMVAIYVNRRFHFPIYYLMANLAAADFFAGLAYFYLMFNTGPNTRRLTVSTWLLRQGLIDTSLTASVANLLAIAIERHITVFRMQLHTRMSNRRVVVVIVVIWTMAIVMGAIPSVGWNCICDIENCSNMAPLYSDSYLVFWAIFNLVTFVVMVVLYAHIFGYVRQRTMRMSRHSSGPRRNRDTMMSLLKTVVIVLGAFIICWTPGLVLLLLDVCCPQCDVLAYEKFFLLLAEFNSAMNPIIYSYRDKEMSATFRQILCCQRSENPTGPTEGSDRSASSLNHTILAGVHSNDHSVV

The term pIC50 denotes the negative decadic logarithm of the IC50, by convention in mol/L. Regarding `Cc1noc(-c2ccc(-c3ccc(C4(C(=O)NS(C)(=O)=O)CC4)cc3)cc2)c1[C@H](O)CO[C@H](C)c1ccccc1` [Compound 72, N-[1-(4′-{4-[(S)-1-Hydroxy-2-((R)-1-phenyl-ethoxy)-ethyl]-3-methyl-isoxazol-5-yl]-biphenyl-4-yl)-cyclopropanecarbonyl}-methanesulfonamide], the pIC50 at human LPA1 is over 6.52; in test [1], over 7.00.

In the case of `Cc1noc(-c2ccc(-c3ccc(C4(C(=O)NS(C)(=O)=O)CC4)cc3)cc2)c1[C@H](O)COCc1ccccc1` [Compound 73, N-(1-{4′-[4-((S)-2-Benzyloxy-1-hydroxy-ethyl)-3-methyl-isoxazol-5-yl]-biphenyl-4-yl}-cyclopropanecarbonyl)-methanesulfonamide], the pIC50 at human LPA1 is over 6.52; in test [1], over 7.00.

Regarding `Cc1noc(-c2ccc(-c3ccc(C4(C(=O)NS(C)(=O)=O)CC4)cc3)cc2)c1C(O)C(F)(F)CCc1ccccc1` (centres unmarked) [Compound 76, N-(1-{4′-[4-(2,2-Difluoro-1-hydroxy-4-phenyl-butyl)-3-methyl-isoxazol-5-yl]-biphenyl-4-yl}-cyclopropanecarbonyl)-methanesulfonamide], the pIC50 was over 6.52 on human LPA1 and over 7.00 in test [1].

Turning to `Cc1noc(-c2ccc(-c3ccc(C4(C(=O)NS(C)(=O)=O)CC4)cc3)cc2)c1[C@H](O)CSCc1ccccc1` [Compound 77, N-(1-{4′-[4-((S)-2-Benzylsulfanyl-1-hydroxy-ethyl)-3-methyl-isoxazol-5-yl]-biphenyl-4-yl}-cyclopropanecarbonyl)-methanesulfonamide], the pIC50 on human LPA1 was over 6.52; in test [1], over 7.00.

Regarding `Cc1noc(-c2ccc(CSCCC(=O)O)cc2)c1NC(=O)OC(C)c1ccccc1Cl` (centres unmarked) [Ki16425], the “in vitro migration in response to LPA and peritoneal fluid (ascites) from pancreatic cancer patients” value in test [2] is “effectively blocked”. In test [3], the “LPA-induced and ascites-induced invasion activity” value is recorded as “blocked”. Also, the “development of renal fibrosis in UUO mice” value in the test on LPA receptor was “closely resembled the LPA1 (−/−) mice”.
